Assay results reported in patent US20080234317A1, “METHODS FOR THE IMPROVEMENT OF MEMORY AND NEUROLOGICAL FUNCTION COMPRISING THE ADMINISTRATION OF COMPOSITIONS THAT ACT AS INHIBITORS OF THE SODIUM PROTON (NA+ /H+ ) EXCHANGER, SUBTYPE 5 (NHE-5)” (SANOFI-AVENTIS, priority 2005, published 2008).
Structures can show the parent of a compound that is named as a salt.

How the values were obtained:
[1] = target: T1, NHE-5 (Homo sapiens, UniProt Q14940); experiment: recovery of intracellular pH in LAP1 cells stably expressing NHE subtypes after acidification (BCECF, FLIPR); assay type: cell-based; details: LAP1 cells expressing NHE-5; pH recovery registered for two minutes
T1 construct: expressed in transfected cells
T1 sequence (Q14940 1-896): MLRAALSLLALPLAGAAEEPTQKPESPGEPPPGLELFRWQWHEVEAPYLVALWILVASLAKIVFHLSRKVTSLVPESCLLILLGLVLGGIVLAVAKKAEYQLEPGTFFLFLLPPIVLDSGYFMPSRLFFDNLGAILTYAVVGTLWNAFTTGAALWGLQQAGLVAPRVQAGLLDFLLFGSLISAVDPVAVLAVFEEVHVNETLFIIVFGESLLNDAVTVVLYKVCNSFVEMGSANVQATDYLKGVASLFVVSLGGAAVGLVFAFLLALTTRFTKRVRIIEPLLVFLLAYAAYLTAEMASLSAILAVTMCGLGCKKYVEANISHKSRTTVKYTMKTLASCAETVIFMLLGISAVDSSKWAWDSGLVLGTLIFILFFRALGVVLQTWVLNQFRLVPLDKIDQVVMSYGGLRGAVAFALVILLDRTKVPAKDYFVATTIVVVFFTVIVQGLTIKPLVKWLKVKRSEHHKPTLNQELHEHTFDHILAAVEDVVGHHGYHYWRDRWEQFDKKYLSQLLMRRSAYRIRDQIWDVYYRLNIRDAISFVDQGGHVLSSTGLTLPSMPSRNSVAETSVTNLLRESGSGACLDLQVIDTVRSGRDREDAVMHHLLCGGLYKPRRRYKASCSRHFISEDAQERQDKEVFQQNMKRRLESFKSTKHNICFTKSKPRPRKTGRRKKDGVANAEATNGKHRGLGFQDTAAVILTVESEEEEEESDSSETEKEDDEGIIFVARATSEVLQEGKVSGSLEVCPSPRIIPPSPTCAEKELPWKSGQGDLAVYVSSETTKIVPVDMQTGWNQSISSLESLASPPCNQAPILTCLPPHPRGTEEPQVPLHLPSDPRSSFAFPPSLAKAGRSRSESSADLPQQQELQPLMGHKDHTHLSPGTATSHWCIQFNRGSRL
Method: In order to obtain pharmacological data for NHE-5 inhibition, the recovery in the intracellular pH (pHi) of LAP1 cells, which stably express the different subtypes of the sodium-proton exchanger (NHE), was determined after an acidification. This recovery occurs even under bicarbonate-free conditions in the case of functioning NHE. To this end, the pHi was determined with the pH-sensitive fluorescent dye BCECF (Molecular Probes, Eugene, Oreg., USA; the precursor BCECF-AM is used). […] The pH recovery was started by the addition of 90 μl of Na^+-containing buffer (133.8 mM NaCl, 4.7 mM KCl, 1.25 mM CaCl2, 1.25 mM MgCl2, 0.97 mM Na2HPO4, 0.23 mM NaH2PO4, 10 mM Hepes, 5 mM glucose; a pH of 7.4 is established with 1 M NaOH) in the analytical instrument (FLIPR, “Fluorometric Imaging Plate Reader”, Molecular Devices, Sunnyvale, Calif., USA). The BCECF fluorescence was determined at an excitation wavelength of 498 nm and the FLIPR emission filter 1 (band gap from 510 to 570 nm). The subsequent changes in fluorescence were registered for two minutes at NHE-5 as a measure of the pH recovery. […] From the percentages of the pH recovery, the IC50 value of the particular substance for the individual NHE subtypes was calculated by means of the program XLFit (idbs, Surrey, UK).

[2] = test system: LTP in the CA 1 region of the hippocampus section; experiment: early LTP after weak tetanus in hippocampus sections, CA 1 region (fEPSP slope); assay type: cell-based, Wistar rats; details: 10 μM

| Compound | IC50 [1] [nM] | potentiation of the EPSP, % of the baseline ([2]; flushed 20 min before stimulation, washed out 20 min after, 80 min after the stimulus, control 113%) | intrinsic effect on synaptic transmission ([2]; baseline recording before tetanus, rat hippocampus sections) | maintenance of the weak LTP ([2]; weak tetanus, rat hippocampus sections) | melting point |
| --- | --- | --- | --- | --- | --- |
| CN1Cc2c(Cl)cc(Cl)cc2C(c2ccc(S(=O)(=O)N=C(N)N)cc2)C1 (centres unmarked) [Example 1, N-Diaminomethylene-4-(6,8-dichloro-2-methyl-1,2,3,4-tetrahydroisoquinolin-4-yl)benzenesulfonamide, dihydrochloride] | 370 | under 137 % of the baseline | no intrinsic effect on synaptic transmission | improve maintenance of the weak LTP | – |
| CN1Cc2c(Cl)cc(Cl)cc2C(c2ccc(S(=O)(=O)N=C(N)N)cc2)C1 (centres unmarked) (as salt: hydrochloride) [Example 1, N-Diaminomethylene-4-(6,8-dichloro-2-methyl-1,2,3,4-tetrahydroisoquinolin-4-yl)benzenesulfonamide, dihydrochloride] | – | – | – | – | 140 °C (dec.) |
